Data as given in PubChem BioAssay (NCI).
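Tested at 5 concentrations; 48 h exposure; 96-well plates; endpoints linearly interpolated, else capped at highest concentration. At the GI50, growth is halved. TGI: concentration producing complete growth inhibition.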

How the values were obtained:
Test in all cases: NCI-60 cell line screen, 48 h
HL-60(TB) leukemia = test system: HL-60(TB) leukemia
M14 melanoma = test system: M14 melanoma
MCF7 breast = test system: MCF7 breast
OVCAR-5 ovarian = test system: OVCAR-5 ovarian
CAKI-1 renal = test system: CAKI-1 renal
RPMI-8226 leukemia = test system: RPMI-8226 leukemia
ACHN renal = test system: ACHN renal
UACC-257 melanoma = test system: UACC-257 melanoma
PC-3 prostate = test system: PC-3 prostate
EKVX NSCLC = test system: EKVX NSCLC
NCI-H522 lung = test system: NCI-H522 lung
HOP-92 NSCLC = test system: HOP-92 NSCLC
HOP-62 NSCLC = test system: HOP-62 NSCLC
BT-549 breast = test system: BT-549 breast
UACC-62 melanoma = test system: UACC-62 melanoma
MDA-MB-231 breast = test system: MDA-MB-231 breast
CCRF-CEM leukemia = test system: CCRF-CEM leukemia
OVCAR-8 ovarian = test system: OVCAR-8 ovarian
OVCAR-4 ovarian = test system: OVCAR-4 ovarian
SF-268 CNS = test system: SF-268 CNS
SK-MEL-5 melanoma = test system: SK-MEL-5 melanoma
IGROV1 ovarian = test system: IGROV1 ovarian
OVCAR-3 ovarian = test system: OVCAR-3 ovarian
SK-OV-3 ovarian = test system: SK-OV-3 ovarian
HCT-116 colon = test system: HCT-116 colon
HCT-15 colon = test system: HCT-15 colon
TK-10 renal = test system: TK-10 renal
786-0 renal = test system: 786-0 renal
A549 NSCLC = test system: A549 NSCLC
NCI/ADR-RES ovarian = test system: NCI/ADR-RES ovarian
HS 578T breast = test system: HS 578T breast
A498 renal = test system: A498 renal
RXF 393 renal = test system: RXF 393 renal
SR leukemia = test system: SR leukemia
HT29 colon = test system: HT29 colon
MOLT-4 leukemia = test system: MOLT-4 leukemia
HCC-2998 colon = test system: HCC-2998 colon
SNB-75 CNS = test system: SNB-75 CNS
SK-MEL-28 melanoma = test system: SK-MEL-28 melanoma
KM12 colon = test system: KM12 colon
COLO 205 colon = test system: COLO 205 colon
NCI-H460 lung = test system: NCI-H460 lung
SK-MEL-2 melanoma = test system: SK-MEL-2 melanoma
UO-31 renal = test system: UO-31 renal
T-47D breast = test system: T-47D breast
SF-539 CNS = test system: SF-539 CNS
NCI-H226 lung = test system: NCI-H226 lung
SW-620 colon = test system: SW-620 colon
LOX IMVI melanoma = test system: LOX IMVI melanoma
DU-145 prostate = test system: DU-145 prostate
MALME-3M melanoma = test system: MALME-3M melanoma
NCI-H23 lung = test system: NCI-H23 lung
K-562 leukemia = test system: K-562 leukemia
MDA-MB-435 = test system: MDA-MB-435
SNB-19 CNS = test system: SNB-19 CNS
U251 CNS = test system: U251 CNS
SN12C renal = test system: SN12C renal
SF-295 CNS = test system: SF-295 CNS

O=Cc1cn(Cc2ccccc2)c2ccccc12
GI50 (HL-60(TB) leukemia): 16.9 µM
TGI (HL-60(TB) leukemia): > 80.5 µM
GI50 (M14 melanoma): 43.4 µM
TGI (M14 melanoma): > 100 µM
GI50 (MCF7 breast): 30.7 µM
TGI (MCF7 breast): > 100 µM
GI50 (OVCAR-5 ovarian): 0.238 µM
GI50 (CAKI-1 renal): < 0.0426 µM
TGI (CAKI-1 renal): 0.547 µM
GI50 (RPMI-8226 leukemia): 6.39 µM
TGI (RPMI-8226 leukemia): 47.7 µM
GI50 (ACHN renal): 33.6 µM
TGI (ACHN renal): > 100 µM
GI50 (UACC-257 melanoma): 3.44 µM
TGI (UACC-257 melanoma): 19.5 µM
GI50 (PC-3 prostate): 35.7 µM
TGI (PC-3 prostate): > 100 µM
GI50 (EKVX NSCLC): 22.8 µM
TGI (EKVX NSCLC): > 81 µM
GI50 (NCI-H522 lung): > 100 µM
TGI (NCI-H522 lung): > 100 µM
GI50 (HOP-92 NSCLC): 20.6 µM
TGI (HOP-92 NSCLC): > 100 µM
GI50 (HOP-62 NSCLC): 21.8 µM
TGI (HOP-62 NSCLC): > 100 µM
GI50 (BT-549 breast): 29.2 µM
TGI (BT-549 breast): > 96.8 µM
GI50 (UACC-62 melanoma): 2.31 µM
TGI (UACC-62 melanoma): 19.4 µM
GI50 (MDA-MB-231 breast): 38.7 µM
TGI (MDA-MB-231 breast): > 100 µM
GI50 (CCRF-CEM leukemia): 41.8 µM
TGI (CCRF-CEM leukemia): > 100 µM
GI50 (OVCAR-8 ovarian): 43.5 µM
TGI (OVCAR-8 ovarian): > 100 µM
GI50 (OVCAR-4 ovarian): 5.83 µM
TGI (OVCAR-4 ovarian): > 100 µM
GI50 (SF-268 CNS): 52.1 µM
TGI (SF-268 CNS): > 100 µM
GI50 (SK-MEL-5 melanoma): 18.7 µM
TGI (SK-MEL-5 melanoma): > 70 µM
GI50 (IGROV1 ovarian): 0.5 µM
TGI (IGROV1 ovarian): > 38.1 µM
GI50 (OVCAR-3 ovarian): 21 µM
TGI (OVCAR-3 ovarian): > 67.5 µM
GI50 (SK-OV-3 ovarian): 4.04 µM
TGI (SK-OV-3 ovarian): > 100 µM
GI50 (HCT-116 colon): 13.7 µM
TGI (HCT-116 colon): > 100 µM
GI50 (HCT-15 colon): 52.4 µM
TGI (HCT-15 colon): > 100 µM
GI50 (TK-10 renal): 0.946 µM
TGI (TK-10 renal): 9 µM
GI50 (786-0 renal): 33.1 µM
TGI (786-0 renal): 97.8 µM
GI50 (A549 NSCLC): 35 µM
TGI (A549 NSCLC): > 100 µM
GI50 (NCI/ADR-RES ovarian): 35.7 µM
TGI (NCI/ADR-RES ovarian): > 100 µM
GI50 (HS 578T breast): 30.5 µM
TGI (HS 578T breast): > 100 µM
GI50 (A498 renal): 0.163 µM
TGI (A498 renal): 0.389 µM
GI50 (RXF 393 renal): > 47.7 µM
TGI (RXF 393 renal): 97.7 µM
GI50 (SR leukemia): > 35.4 µM
TGI (SR leukemia): > 82 µM
GI50 (HT29 colon): 61.5 µM
TGI (HT29 colon): > 100 µM
GI50 (MOLT-4 leukemia): 21.1 µM
TGI (MOLT-4 leukemia): > 100 µM
GI50 (HCC-2998 colon): 21.9 µM
TGI (HCC-2998 colon): > 100 µM
GI50 (SNB-75 CNS): 27.1 µM
TGI (SNB-75 CNS): > 100 µM
GI50 (SK-MEL-28 melanoma): > 57.8 µM
TGI (SK-MEL-28 melanoma): > 100 µM
GI50 (KM12 colon): 53.3 µM
TGI (KM12 colon): > 100 µM
GI50 (COLO 205 colon): 0.438 µM
TGI (COLO 205 colon): > 32.4 µM
GI50 (NCI-H460 lung): 0.279 µM
TGI (NCI-H460 lung): > 100 µM
GI50 (SK-MEL-2 melanoma): 8.62 µM
TGI (SK-MEL-2 melanoma): 60.6 µM
GI50 (UO-31 renal): 18.2 µM
TGI (UO-31 renal): > 100 µM
GI50 (T-47D breast): 3.12 µM
TGI (T-47D breast): > 100 µM
GI50 (SF-539 CNS): 43.7 µM
TGI (SF-539 CNS): > 100 µM
GI50 (NCI-H226 lung): 0.916 µM
TGI (NCI-H226 lung): 3.72 µM
GI50 (SW-620 colon): 45.6 µM
TGI (SW-620 colon): > 100 µM
GI50 (LOX IMVI melanoma): 24.4 µM
TGI (LOX IMVI melanoma): > 100 µM
GI50 (DU-145 prostate): > 68.2 µM
TGI (DU-145 prostate): > 100 µM
GI50 (MALME-3M melanoma): > 56 µM
TGI (MALME-3M melanoma): > 100 µM
GI50 (NCI-H23 lung): 37.9 µM
TGI (NCI-H23 lung): > 100 µM
GI50 (K-562 leukemia): 18.7 µM
TGI (K-562 leukemia): > 100 µM
GI50 (MDA-MB-435): 46.2 µM
TGI (MDA-MB-435): > 100 µM
GI50 (SNB-19 CNS): 75.4 µM
TGI (SNB-19 CNS): > 100 µM
GI50 (U251 CNS): 31.5 µM
TGI (U251 CNS): > 100 µM
GI50 (SN12C renal): 49.2 µM
TGI (SN12C renal): > 100 µM
GI50 (SF-295 CNS): 5.15 µM
TGI (SF-295 CNS): > 63.4 µM
